These results are taken from patent US8513268B2, “1H-quinazoline-2,4-diones processes for their production, pharmaceutical compositions, and treatment for epilepsy” (Novartis AG, priority 2005, dated 2013).

Counter-ions that a name gives are not always drawn.

One may read the melting point as the temperature of the solid-liquid transition. Compound `CS(=O)(=O)Nn1c(=O)[nH]c2cc(C(F)(F)F)c(-c3cccc(CN)c3)cc2c1=O` (as salt: hydrochloride) [Example 38, N-[6-(3-Aminomethyl-phenyl)-2,4-dioxo-7-trifluoromethyl-1,4-dihydro-2H-quinazolin-3-yl]methanesulfonamide] gave a melting point of 282 to 284 °C.

`CC(O)c1cc2c(=O)n(NS(C)(=O)=O)c(=O)[nH]c2cc1C(F)(F)F` (racemic) [Example 2, N-[6-(1-Hydroxy-ethyl)-2,4-dioxo-7-trifluoromethyl-1,4-dihydro-2H-quinazolin-3-yl]-methanesulfonamide] came in with a melting point of 263 to 268 °C.

Compound `CC(=O)c1cc2c(=O)n(NS(C)(=O)=O)c(=O)[nH]c2cc1C(F)(F)F` [Example 1, N-(6-Acetyl-2,4-dioxo-7-trifluoromethyl-1,4-dihydro-2H-quinazolin-3-yl)-methanesulfonamide] registered a melting point of 258 to 265 °C.

`COC(C)c1cc2c(=O)n(NS(C)(=O)=O)c(=O)[nH]c2cc1C(F)(F)F` (stereo not shown) [Example 3, N-[6-(1-Methoxy-ethyl)-2,4-dioxo-7-trifluoromethyl-1,4-dihydro-2H-quinazolin-3-yl]-methanesulfonamide] returned a melting point of 233 to 236 °C.

`CC(C)OC(C)c1cc2c(=O)n(NS(C)(=O)=O)c(=O)[nH]c2cc1C(F)(F)F` (stereo not shown) [Example 5, N-[6-(1-Isopropoxy-ethyl)-2,4-dioxo-7-trifluoromethyl-1,4-dihydro-2H-quinazolin-3-yl]-methanesulfonamide] had a melting point of 110 to 115 °C.

For the compound `CCC(=O)c1cc2c(=O)n(NS(C)(=O)=O)c(=O)[nH]c2cc1C(F)(F)F` [Example 6, N-(2,4-Dioxo-6-propionyl-7-trifluoromethyl-1,4-dihydro-2H-quinazolin-3-yl)-methanesulfonamide], the melting point lay within 234 to 236 °C.

Turning to `CCC(O)c1cc2c(=O)n(NS(C)(=O)=O)c(=O)[nH]c2cc1C(F)(F)F` (stereo not shown) [Example 7, N-[6-(1-Hydroxy-propyl)-2,4-dioxo-7-trifluoromethyl-1,4-dihydro-2H-quinazolin-3-yl]-methanesulfonamide], the melting point was 219 to 222 °C.

On to `CCCC(=O)c1cc2c(=O)n(NS(C)(=O)=O)c(=O)[nH]c2cc1C(F)(F)F` [Example 10, N-(6-Butyryl-2,4-dioxo-7-trifluoromethyl-1,4-dihydro-2H-quinazolin-3-yl)-methanesulfonamide], for which the melting point lay within 236 to 239 °C.

`CCCC(O)c1cc2c(=O)n(NS(C)(=O)=O)c(=O)[nH]c2cc1C(F)(F)F` (stereo not shown) [Example 11, N-[6-(1-Hydroxy-butyl)-2,4-dioxo-7-trifluoromethyl-1,4-dihydro-2H-quinazolin-3-yl]-methanesulfonamide] displayed a melting point of 223 to 226 °C.

`CS(=O)(=O)Nn1c(=O)[nH]c2cc(C(F)(F)F)c(C3CCCO3)cc2c1=O` (stereo not shown) [Example 12, N-[2,4-Dioxo-6-(tetrahydro-furan-2-yl)-7-trifluoromethyl-1,4-dihydro-2H-quinazolin-3-yl]-methanesulfonamide] gave a melting point of 254 to 257 °C.

Turning to `CCCOC(C)c1cc2c(=O)n(NS(C)(=O)=O)c(=O)[nH]c2cc1C(F)(F)F` (stereo not shown) [Example 14, N-[2,4-Dioxo-6-(1-propoxy-ethyl)-7-trifluoromethyl-1,4-dihydro-2H-quinazolin-3-yl]-methanesulfonamide], the melting point was 95 to 105 °C.

Turning to `CCCCOC(C)c1cc2c(=O)n(NS(C)(=O)=O)c(=O)[nH]c2cc1C(F)(F)F` (stereo not shown) [Example 15, N-[6-(1-Butoxy-ethyl)-2,4-dioxo-7-trifluoromethyl-1,4-dihydro-2H-quinazolin-3-yl]-methanesulfonamide], the melting point lay in the range of 84 to 90 °C.

`CC(OC1CCCC1)c1cc2c(=O)n(NS(C)(=O)=O)c(=O)[nH]c2cc1C(F)(F)F` (stereo not shown) [Example 17, N-[6-(1-Cyclopentyloxy-ethyl)-2,4-dioxo-7-trifluoromethyl-1,4-dihydro-2H-quinazolin-3-yl]-methanesulfonamide] registered a melting point of 188 to 192 °C.
